Measurements taken from patent publication US11566057B2, “Long-acting co-agonists of the glucagon and GLP-1 receptors” (Merck Sharp & Dohme Corp., priority 2017, dated 2023).
Like-named read-outs stand apart in the source and are kept apart here. Numbered stars: 1 amine (or outer) side, 2 acyl side, 3 side chain; on linkers, the order of the positions; unused ones are H or OH. Square brackets hold non-standard residues; d marks the D form. Side chains are listed from the residue outwards. Peptide text beside a SMILES is read from it. * marks the point of attachment. C20 diacid = O=C(O)CCCCCCCCCCCCCCCCCCC(=O)*; Phe(4-CH2NH2) = NCc1ccc(C[C@H](N)C(=O)O)cc1; C18 diacid = O=C(O)CCCCCCCCCCCCCCCCC(=O)*; C16 diacid = O=C(O)CCCCCCCCCCCCCCC(=O)*; γGlu = O=C(O)[C@H](CCC(=O)[*:2])N[*:1]; Met(O2) = CS(=O)(=O)CC[C@H](N)C(=O)O; αMeD = C[C@](N)(CC(=O)O)C(=O)O; αMeS = C[C@](N)(CO)C(=O)O; AEEA = NCCOCCOCC(=O)O; Aib = CC(C)(N)C(=O)O

Tests used:
[1] = target: T1, human GLP1R (Homo sapiens, UniProt P43220); experiment: cAMP activity assay at the GLP-1 receptor (GLP1R); type: cell-based
T1 construct: expressed in transfected cells; growth medium holds Blasticidin and Hygromycin
T1 sequence (P43220 24-463): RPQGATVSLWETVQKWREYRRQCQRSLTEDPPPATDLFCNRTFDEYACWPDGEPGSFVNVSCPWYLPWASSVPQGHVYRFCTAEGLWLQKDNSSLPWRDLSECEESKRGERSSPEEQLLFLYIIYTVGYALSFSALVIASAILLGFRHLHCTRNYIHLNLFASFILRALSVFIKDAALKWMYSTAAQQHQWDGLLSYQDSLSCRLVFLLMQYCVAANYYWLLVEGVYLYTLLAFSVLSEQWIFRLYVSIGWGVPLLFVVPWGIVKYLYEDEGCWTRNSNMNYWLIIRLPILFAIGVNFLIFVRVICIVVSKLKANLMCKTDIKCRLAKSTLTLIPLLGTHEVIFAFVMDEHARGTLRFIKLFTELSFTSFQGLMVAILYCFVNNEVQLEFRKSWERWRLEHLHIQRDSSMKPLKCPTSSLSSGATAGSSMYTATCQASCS
In short: (§1)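 Peptides serially diluted from DMSO (10 points) and added to frozen-stock cells bearing human GLP1R (10,000 cells/well) or GCGR (30,000 cells/well), 1 h at RT, dark. EC50 by four-parameter logistic fit of HitHunter cAMPXS luminescence, read following overnight RT incubation.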

[2] = target: T2, human GCGR (Homo sapiens, UniProt P47871); experiment: cAMP activity assay at the Glucagon receptor (GCGR); type: cell-based; conditions: for hGCGR/hGLP1R (hTone): ratio of GCGR EC50 to GLP1R EC50
T2 construct: expressed in transfected cells; growth medium holds Blasticidin and Hygromycin
T2 sequence (P47871 26-477): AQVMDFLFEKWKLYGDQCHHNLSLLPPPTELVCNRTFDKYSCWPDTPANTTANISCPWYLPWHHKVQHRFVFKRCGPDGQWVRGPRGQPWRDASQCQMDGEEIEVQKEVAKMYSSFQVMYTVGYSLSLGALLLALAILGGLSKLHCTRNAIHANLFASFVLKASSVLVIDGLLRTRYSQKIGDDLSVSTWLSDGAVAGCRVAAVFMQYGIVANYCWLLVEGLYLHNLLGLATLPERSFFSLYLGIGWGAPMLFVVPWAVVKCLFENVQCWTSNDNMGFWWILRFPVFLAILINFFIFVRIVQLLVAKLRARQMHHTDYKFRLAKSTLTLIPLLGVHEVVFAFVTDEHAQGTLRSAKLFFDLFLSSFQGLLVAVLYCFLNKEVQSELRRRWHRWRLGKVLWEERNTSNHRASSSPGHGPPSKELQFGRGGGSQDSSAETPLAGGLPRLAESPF
In short: as §1

[3] = summary statement: EC50 at each of the glucagon and GLP-1 receptors, read-out: EC50 at the GLP-1 receptor
[4] = summary statement: EC50 at each of the glucagon and GLP-1 receptors, read-out: EC50 at the glucagon receptor
[5] = cells expressing human GCGR, cAMP production, buffer with or without 20% human serum (not stated which), read-out: GCGR EC50 human
[6] = cells expressing human GLP1R, cAMP production, buffer with or without 20% human serum (not stated which), read-out: GLP1R EC50 human

EC50 [1, 3] [nM] | hGCGR/hGLP1R (hTone) [2] | EC50 [2, 4] [nM] | EC50 [2, 5] [nM] | EC50 [1, 6] [nM] | Structure (SMILES)
< 5 | 6.3 | < 5 | – | – | CC(C)C[C@H](NC(=O)[C@H](Cc1ccc(O)cc1)NC(=O)[C@H](CCCCN)NC(=O)[C@H](CO)NC(=O)[C@H](Cc1ccc(O)cc1)NC(=O)[C@H](CC(=O)O)NC(=O)[C@H](CO)NC(=O)[C@@H](NC(=O)[C@H](Cc1ccccc1)NC(=O)[C@@H](NC(=O)CNC(=O)[C@H](CCC(N)=O)NC(=O)C(C)(C)NC(=O)[C@@H](N)Cc1c[nH]cn1)[C@@H](C)O)[C@@H](C)O)C(=O)N[C@@H](CC(=O)O)C(=O)N[C@@H](C)C(=O)N[C@@H](CCCNC(=N)N)C(=O)N[C@@H](C)C(=O)N[C@@H](C)C(=O)N[C@@H](CCC(N)=O)C(=O)N[C@@H](CC(=O)O)C(=O)N[C@@H](Cc1ccccc1)C(=O)N[C@H](C(=O)N[C@@H](CCC(N)=O)C(=O)N[C@@H](Cc1c[nH]c2ccccc12)C(=O)N[C@@H](CC(C)C)C(=O)N[C@@H](CCS(C)(=O)=O)C(=O)N[C@@H](CCCCNC(=O)COCCOCCNC(=O)COCCOCCNC(=O)CC[C@H](NC(=O)CCCCCCCCCCCCCCCCC(=O)O)C(=O)O)C(=O)N[C@H](C(N)=O)[C@@H](C)O)C(C)C [TP602] (H-H[Aib]QGTFTSDYSKYLDARAAQDFVQWL[Met(O2)]K([AEEA-AEEA-γGlu-C18 diacid])T-NH2)
< 5 | 0.4 | < 5 | – | – | CC(C)C[C@H](NC(=O)[C@H](Cc1c[nH]c2ccccc12)NC(=O)[C@H](CCCCNC(=O)COCCOCCNC(=O)COCCOCCNC(=O)CC[C@H](NC(=O)CCCCCCCCCCCCCCC(=O)O)C(=O)O)NC(=O)[C@@H](NC(=O)[C@H](Cc1ccccc1)NC(=O)[C@H](CC(=O)O)NC(=O)[C@H](CCC(N)=O)NC(=O)[C@H](C)NC(=O)[C@H](C)NC(=O)[C@H](CCCNC(=N)N)NC(=O)C(C)(C)NC(=O)[C@H](CC(=O)O)NC(=O)[C@H](CC(C)C)NC(=O)[C@H](Cc1ccc(O)cc1)NC(=O)[C@H](CCCCN)NC(=O)[C@H](CO)NC(=O)[C@H](Cc1ccc(O)cc1)NC(=O)[C@H](CC(=O)O)NC(=O)[C@H](CO)NC(=O)[C@@H](NC(=O)[C@H](Cc1ccccc1)NC(=O)[C@@H](NC(=O)CNC(=O)[C@H](CCC(N)=O)NC(=O)C(C)(C)NC(=O)[C@@H](N)Cc1c[nH]cn1)[C@@H](C)O)[C@@H](C)O)C(C)C)C(=O)N[C@@H](CCS(C)(=O)=O)C(=O)N[C@@H](CCC(=O)N[C@H](C(N)=O)[C@@H](C)O)C(=O)O [TP828] (H-H[Aib]QGTFTSDYSKYLD[Aib]RAAQDFVK([AEEA-AEEA-γGlu-C16 diacid])WL[Met(O2)][γGlu]T-NH2)
< 5 | 0.1 | < 5 | 0.25 | – | CC(C)C[C@H](NC(=O)[C@H](Cc1ccc(O)cc1)NC(=O)[C@H](CCCCN)NC(=O)[C@H](CO)NC(=O)[C@H](Cc1ccc(O)cc1)NC(=O)[C@H](CC(=O)O)NC(=O)[C@H](CO)NC(=O)[C@@H](NC(=O)[C@H](Cc1ccccc1)NC(=O)[C@@H](NC(=O)CNC(=O)[C@H](CCC(N)=O)NC(=O)[C@](C)(CO)NC(=O)[C@@H](N)Cc1c[nH]cn1)[C@@H](C)O)[C@@H](C)O)C(=O)N[C@@H](CC(=O)O)C(=O)NC(C)(C)C(=O)N[C@@H](CCCNC(=N)N)C(=O)N[C@@H](C)C(=O)N[C@@H](C)C(=O)N[C@@H](CCC(N)=O)C(=O)N[C@@H](CCCCNC(=O)COCCOCCNC(=O)COCCOCCNC(=O)CC[C@H](NC(=O)CCCCCCCCCCCCCCCCC(=O)O)C(=O)O)C(=O)N[C@@H](Cc1ccccc1)C(=O)N[C@H](C(=O)N[C@@H](CCC(N)=O)C(=O)N[C@@H](Cc1c[nH]c2ccccc12)C(=O)N[C@@H](CC(C)C)C(=O)N[C@@H](CCS(C)(=O)=O)C(=O)N[C@@](C)(CC(=O)O)C(=O)N[C@H](C(N)=O)[C@@H](C)O)C(C)C [TP621] (H-H[αMeS]QGTFTSDYSKYLD[Aib]RAAQK([AEEA-AEEA-γGlu-C18 diacid])FVQWL[Met(O2)][αMeD]T-NH2)
< 5 | >4.0 | < 5 | 4.95 | – | CC(C)C[C@H](NC(=O)[C@H](Cc1ccc(O)cc1)NC(=O)[C@H](CCCCN)NC(=O)[C@H](CO)NC(=O)[C@H](Cc1ccc(O)cc1)NC(=O)[C@H](CC(=O)O)NC(=O)[C@H](CO)NC(=O)[C@@H](NC(=O)[C@H](Cc1ccccc1)NC(=O)[C@@H](NC(=O)CNC(=O)[C@H](CCC(N)=O)NC(=O)C(C)(C)NC(=O)[C@@H](N)Cc1c[nH]cn1)[C@@H](C)O)[C@@H](C)O)C(=O)N[C@@H](CC(=O)O)C(=O)N[C@@H](CCC(=O)O)C(=O)N[C@@H](CCCNC(=N)N)C(=O)N[C@@H](C)C(=O)N[C@@H](C)C(=O)N[C@@H](Cc1ccc(CNC(=O)COCCOCCNC(=O)COCCOCCNC(=O)CC[C@H](NC(=O)CCCCCCCCCCCCCCCCCCC(=O)O)C(=O)O)cc1)C(=O)N[C@@H](CC(=O)O)C(=O)N[C@@H](Cc1ccccc1)C(=O)N[C@H](C(=O)N[C@@H](CCC(N)=O)C(=O)N[C@@H](Cc1c[nH]c2ccccc12)C(=O)N[C@@H](CC(C)C)C(=O)N[C@@H](CC(C)C)C(=O)N[C@@H](CCCCN)C(=O)N[C@H](C(N)=O)[C@@H](C)O)C(C)C [TP586] (H-H[Aib]QGTFTSDYSKYLDERAA[Phe(4-CH2NH2)]([AEEA-AEEA-γGlu-C20 diacid])DFVQWLLKT-NH2; N-terminus assumed)
– | <0.02 | – | 0.2 | > 5 | CC(C)C[C@H](NC(=O)[C@H](Cc1ccc(O)cc1)NC(=O)[C@H](CCCCN)NC(=O)[C@H](CO)NC(=O)[C@H](Cc1ccc(O)cc1)NC(=O)[C@H](CC(=O)O)NC(=O)[C@H](CO)NC(=O)[C@@H](NC(=O)[C@H](Cc1ccccc1)NC(=O)[C@@H](NC(=O)CNC(=O)[C@H](CCC(N)=O)NC(=O)C(C)(C)NC(=O)[C@@H](N)Cc1c[nH]cn1)[C@@H](C)O)[C@@H](C)O)C(=O)N[C@@H](CC(=O)O)C(=O)N[C@@H](C)C(=O)N[C@@H](CCCNC(=N)N)C(=O)N[C@@H](C)C(=O)N[C@@H](C)C(=O)N[C@@H](CCCCNC(=O)COCCOCCNC(=O)COCCOCCNC(=O)CC[C@H](NC(=O)CCCCCCCCCCCCCCCCC(=O)O)C(=O)O)C(=O)N[C@@](C)(CC(=O)O)C(=O)N[C@@H](Cc1ccccc1)C(=O)N[C@H](C(=O)N[C@@H](CCC(N)=O)C(=O)N[C@@H](Cc1c[nH]c2ccccc12)C(=O)N[C@@H](CC(C)C)C(=O)N[C@@H](CCS(C)(=O)=O)C(=O)N[C@@](C)(CC(=O)O)C(=O)N[C@H](C(N)=O)[C@@H](C)O)C(C)C [TP611] (H-H[Aib]QGTFTSDYSKYLDARAAK([AEEA-AEEA-γGlu-C18 diacid])[αMeD]FVQWL[Met(O2)][αMeD]T-NH2)
– | – | – | > 19.8 | > 19.8 | CC(C)C[C@H](NC(=O)[C@H](CCCCN)NC(=O)[C@H](CCCCN)NC(=O)[C@H](CO)NC(=O)[C@H](Cc1ccc(O)cc1)NC(=O)[C@H](CCC(=O)O)NC(=O)[C@H](CO)NC(=O)[C@@H](NC(=O)[C@H](Cc1ccccc1)NC(=O)[C@@H](NC(=O)CNC(=O)[C@H](CCC(N)=O)NC(=O)C(C)(C)NC(=O)[C@@H](N)Cc1c[nH]cn1)[C@@H](C)O)[C@@H](C)O)C(=O)N[C@@H](CC(=O)O)C(=O)N[C@@H](C)C(=O)N[C@@H](CCCNC(=N)N)C(=O)N[C@@H](C)C(=O)N[C@@H](C)C(=O)N[C@@H](CCCCNC(=O)COCCOCCNC(=O)COCCOCCNC(=O)CC[C@H](NC(=O)CCCCCCCCCCCCCCCCC(=O)O)C(=O)O)C(=O)N[C@@H](CC(=O)O)C(=O)N[C@@H](Cc1ccccc1)C(=O)N[C@H](C(=O)N[C@@H](CCC(N)=O)C(=O)N[C@@H](Cc1c[nH]c2ccccc12)C(=O)N[C@@H](CC(C)C)C(=O)N[C@@H](CCS(C)(=O)=O)C(=O)N[C@@H](CC(=O)O)C(=O)N[C@H](C(N)=O)[C@@H](C)O)C(C)C [TP703] (H-H[Aib]QGTFTSEYSKKLDARAAK([AEEA-AEEA-γGlu-C18 diacid])DFVQWL[Met(O2)]DT-NH2)
